Here are results for two compounds from US8535693B2, “Topical formulation(s) for the treatment of inflammation, skin and mucosal disorders and other diseases thereof” (Laila Pharmaceuticals Private Limited, priority 2008, dated 2013).

A short description of data set [1]: Particle size distribution study (Malvern particle size analyzer, laser diffraction). In kind it is physicochemical. Particulars: nanoemulsified vs unformulated. The method, then:
This study proves that a curcumin molecule which is originally 374 nm in the unformulated form is emulsified into 8-11 nm sized particles through a unique process, which has been indicated for this enhanced transport and efficacy of curcumin through the formulation. The study was conducted using Malvern particle size analyzer. The map of scattering intensity versus angle is the primary source of information used to calculate the particle size. The scattering of particles is accurately predicted by the Mie scattering model allowing accurate sizing across the widest possible dynamic range. During the laser diffraction measurement, particles are passed through a focused laser beam. These particles scatter light at an angle that is inversely proportional to their size. The angular intensity of the scattered light is then measured by a series of photosensitive detectors. The advantage of this study is that there is no sample preparation involved. […] Additional peaks can be observed which is contributed by the high molecular weight excipients used to prepare the formulation.

Another data set deals with psoriasis. Particulars: Heng et al., Br J Dermatol 2000; cited from earlier work.
Another data set concerns phosphorylase kinase. The conditions noted are these: Reddy & Aggarwal, FEBS Lett 1994; cited from earlier work.
Data set [2] has as its system TNFα-induced gene expression in Human Microvascular Endothelial Cells (HMEC). Kind of data set: Microarray study of TNFα-induced gene expression in HMEC. In kind it is cell-based. As for the experimental part:
Effects of BDMC/Curcumin/Curcuminoids were Studied in TNFα-Induced Gene Expression in Human Microvascular Endothelial Cells (HMEC):
Micro array analysis was carried out to identify the sets of gene differentially expressed in TNFα treated endothelial cells pretreated/not pretreated with demethylated curcuminoids (BMDC, curcumin)/with curcuminoids. Data acquisition and image processing were performed using GCOS (Gene Chip Operating Software, Affymetrix). Genes that were >2.0 fold up regulated in TNFα-treated group compared to TNFα untreated control group were selected and subjected to hierarchical clustering. […] These sub-clusters were subjected to further functional analysis using DAVID (Database for Annotation, Visualization and Integrated Discovery NIAID, NIH) (FIG. 10, 11). Major known pathways (KEGG, Kyoto Encyclopedia of Genes and Genomes) identified in each of the cluster have been illustrated as pathway maps marking the candidate genes.
GeneChip™ screening of TNFα-inducible transcriptome of HMEC identified 1195 probe sets that were induced by a magnitude of two-fold or higher.

On to `COc1cc(/C=C/C(=O)CC(=O)/C=C/c2ccc(O)c(OC)c2)ccc1O` [curcumin], for which the particle size is recorded as 374 nm in data set [1] and 373 nm in data set [1] (listed as unformulated curcumin 98%). Further, the resolution of psoriasis result in the data set on psoriasis is given as “leads to resolution of psoriasis”. Further, the phosphorylase kinase inhibition entry with phosphorylase kinase is on record as “selective phosphorylase kinase inhibitor”.

On to `O=C(/C=C/c1ccc(O)c(O)c1)CC(=O)/C=C/c1ccc(O)c(O)c1` [bis-O-demethyl curcumin, Bis-O-Demethyl curcumin], for which the “effect on TNFα” value in data set [2] (HMEC challenged with TNFα) was “antagonizing effects on TNFα”. The “number of TNFα inducible genes sensitive to the substance” value in data set [2] (microvascular endothelial cells challenged with TNFα, 1195 probe sets induced two-fold or higher) came to 1065 genes.
